In publication PMC9486809, “Exploring the Surface of the Ectodomain of the PD-L1 Immune Checkpoint with Small-Molecule Fragments” (ACS Chemical Biology, 2022):
pKd: −log10 of the molar value.

target: T1, PD-L1 (Homo sapiens, UniProt Q9NZQ7); assay: biochemical; design: gene CD274; ectodomain, PD-L1-long (amino acids 18–239); Differential scanning fluorimetry, melting temperature shift of PD-L1 ectodomain (PD-L1-long); details: read-out: DSF (°C)
Experimental: Fragments were screened in both techniques as singletons. […] The fragments were tested at a final concentration of 0.1 mM. […] DSF hits were defined as fragments, resulting in an increase or decrease in melting point of PD-L1 by at least 0.5 °C. […] Having the library in hand, we carried out screening using differential scanning fluorimetry and 1D NMR techniques. Previously, the fragment-based approach with a large library of compounds (>13 000) was tested on the PD-L1 V1 domain.[33] […] Therefore, instead of using a large fragment library, we assembled a focused library of fragments containing the biphenyl core extracted from known inhibitors. The obtained fragments were decorated with different substituents to test how these variations will affect the binding of biphenyl. The expression and purification protocol relate to work on PD-L1-short published earlier by us. Briefly, Escherichia coli strain BL21 (DE3) was transformed with a pET-21b plasmid carrying the PD-L1-long gene (amino acids 18–239). The bacteria were cultured in LB at 37 °C until OD600 nm of 0.8 when the recombinant protein production was induced with 1 mM IPTG. The protein expression was carried out at 37 °C for 5 h. Next, bacteria cells were harvested, and the pellet was frozen at −20 °C. […] Inclusion bodies were collected by centrifugation, suspended in 1× PBS, and then sonicated to finally collect them again by centrifugation. Then, the inclusion bodies were washed twice with 50 mM Tris-HCl, pH 8.0, containing 200 mM NaCl, 10 mM EDTA, 10 mM 2- mercaptoethanol, and 0.5% Triton X-100, followed by a single wash with the same buffer without Triton X-100.

T1 sequence (Q9NZQ7 18-239): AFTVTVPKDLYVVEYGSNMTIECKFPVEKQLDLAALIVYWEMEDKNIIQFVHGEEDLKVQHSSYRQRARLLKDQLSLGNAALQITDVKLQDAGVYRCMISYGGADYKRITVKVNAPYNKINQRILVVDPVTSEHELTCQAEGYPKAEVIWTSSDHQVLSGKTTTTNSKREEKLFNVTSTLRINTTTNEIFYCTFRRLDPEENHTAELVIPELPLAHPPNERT

| Compound | ΔTm at 100 µM [°C] |
| --- | --- |
| COC(=O)c1cncc(-c2cccc(CO)c2C)c1 [TAH2] | 0.1 |
| Cc1c(CO)cccc1-c1cccc(CO)c1Br [TAH3] | 0.3 |
| OCc1cccc(-c2cccnc2)c1Cl [TAH5] | 0.3 |
| Nc1c(C(=O)O)cccc1-c1ccccc1 [TAH7] | 0.3 |
| COC(=O)c1cccc(-c2ccccc2)c1N [TAH8] | 0.3 |
| COC(=O)c1cccc(-c2ccccc2)c1Br [TAH9] | 0.5 |
| Oc1cccc(-c2cccc(Br)c2)c1 [TAH11] | 0.1 |
| COc1cccc(-c2cccc(O)c2)c1 [TAH14] | 0.5 |
| Cc1c(-c2cccc([N+](=O)[O-])c2C)cccc1[N+](=O)[O-] [TAH34] | 0.3 |
| Cc1c(C#N)cccc1-c1cccc(C#N)c1C [TAH37] | 0.1 |
| O=C(O)c1cccc(-c2ccccc2)c1Br [TAH40] | 0.3 |
| Oc1cccc(-c2cccc(F)c2)c1 [TAH41] | 1.1 |
| Nc1c(Br)cccc1-c1ccc(CO)cc1 [TAH44] | 0.5 |
| Cc1c(-c2ccc(CO)cc2)cccc1-c1ccc(CO)cc1 [TAH50] | 0.3 |
| Nc1c(CO)cccc1-c1ccncc1 [TAH57] | 0.1 |
| COc1ccc(-c2cccc(CO)c2N)cc1 [TAH58] | 0.1 |
| Cc1c(CO)cccc1-c1cccc2c1OCCN2C [TAH61] | -1.1 |

Continued, values first:

| ΔTm at 100 µM [°C] | Compound |
| --- | --- |
| 0.5 | OCc1cccc(-c2ccc3c(c2)OCCO3)c1Cl [TAH4] |
| 0.3 | Nc1c(CO)cccc1-c1ccc2c(c1)OCCO2 [TAH6] |
| 0.5 | Cc1c(N)cccc1-c1ccc2c(c1)OCCO2 [TAH16] |
| 0.3 | Cc1c(-c2ccc3c(c2)OCCO3)cccc1N1CCCCC1=O [TAH17] |
| 0.3 | Cc1c(N)cccc1-c1ccccn1 [TAH28] |
| 0.1 | Cc1c(N)cccc1-c1ccc(C#N)cc1 [TAH29] |
| 0.1 | O=C1CCc2cc(-c3ccc4c(c3)OCCO4)ccc21 [TAH30] |
| -1.2 | Cc1c(N)cccc1-c1cccc(N)c1C [TAH35] |
| 0.9 | Cc1c(/C=C/C#N)cccc1-c1ccc2c(c1)OCCO2 [TAH38] |
| 0.3 | Cc1c(N)cccc1-c1ccccc1 [TAH39] |
| 0.5 | Nc1c(-c2ccc3c(c2)OCCO3)cccc1-c1ccc2c(c1)OCCO2 [TAH46] |
| 0.7 | Cc1ccc(-c2ccc3c(c2)OCCO3)c(N)c1 [TAH53] |
| 0.3 | Cc1cccc(N)c1-c1ccc2c(c1)OCCO2 [TAH55] |
| 0.1 | CNc1cccc(-c2ccc3c(c2)OCCO3)c1 [TAH56] |
| 0.3 | Nc1c(Br)cccc1-c1ccc2c(c1)OCCO2 [TAH59] |
| 0.3 | Cc1cc(Br)cc(-c2ccc3c(c2)OCCO3)c1 [TAH60] |

target: T1, PD-L1; assay: 1H-15N HMQC NMR, w-AIDA-NMR KD, 1H NMR; type: binding; design: gene CD274; ectodomain, PD-L1-long (amino acids 18–239); PD-L1-short in 1H-15N HMQC; details: not given

| pKd | Compound |
| --- | --- |
| ~1.40 | OCc1cccc(-c2ccc3c(c2)OCCO3)c1Cl [TAH4] |

target: T1, PD-L1; assay: 1H NMR; KD stated (data not shown); type: binding; design: gene CD274; ectodomain, PD-L1-long (amino acids 18–239); details: cited from earlier work

| Compound | pKd |
| --- | --- |
| CN1CCOc2cc(C#N)ccc21 [STD4] | 2.66 |

target: T1, PD-L1; assay: biochemical; design: gene CD274; details: read-out: DSF (°C); remark: another data set of the same source
Experimental: Fragments were screened in both techniques as singletons. […] The fragments were tested at a final concentration of 0.1 mM. […] DSF hits were defined as fragments, resulting in an increase or decrease in melting point of PD-L1 by at least 0.5 °C. […] Having the library in hand, we carried out screening using differential scanning fluorimetry and 1D NMR techniques. Previously, the fragment-based approach with a large library of compounds (>13 000) was tested on the PD-L1 V1 domain.[33] […] Therefore, instead of using a large fragment library, we assembled a focused library of fragments containing the biphenyl core extracted from known inhibitors. The obtained fragments were decorated with different substituents to test how these variations will affect the binding of biphenyl. The expression and purification protocol relate to work on PD-L1-short published earlier by us. Briefly, Escherichia coli strain BL21 (DE3) was transformed with a pET-21b plasmid carrying the PD-L1-long gene (amino acids 18–239). The bacteria were cultured in LB at 37 °C until OD600 nm of 0.8 when the recombinant protein production was induced with 1 mM IPTG. The protein expression was carried out at 37 °C for 5 h. Next, bacteria cells were harvested, and the pellet was frozen at −20 °C. […]

| ΔTm at 100 µM [°C] | Compound |
| --- | --- |
| 2.7 | Cc1c(COc2cc(OCc3cccc(C#N)c3)c(CN3C[C@H](O)C[C@@H]3C(=O)O)cc2Cl)cccc1-c1ccc2c(c1)OCCO2 [BMS-1166] |

target: T1, PD-L1; assay: w-AIDA-NMR KD, 1H-15N HMQC NMR, 1H NMR, DSF; type: binding; design: gene CD274; ectodomain, PD-L1-long (amino acids 18–239); PD-L1-short in 1H-15N HMQC; details: not given

| pKd | Compound |
| --- | --- |
| ~1.70 | Cc1c(N)cccc1-c1cccc(N)c1C [TAH35] |
